In US20160076075A1 (priority 2014, published 2016):

Experiments:
[1] = system: IMCSzyme™ (recombinant glucuronidase); format: biochemical
[2] = system: IMCSzyme™ (recombinant glucuronidase); assay: IMCSzyme hydrolysis of opiate glucuronides; format: biochemical; details: for Cleavage in the presence of the IMCSzyme (in words): compared with planar THCA-glucuronide
[3] = system: IMCSzyme™ (recombinant glucuronidase); assay: IMCSzyme hydrolysis of THCA glucuronide with and without water miscible organic media; format: biochemical
Description: To a 10 mL volumetric flask add 5 mL of 0.2M Sodium Phosphate buffer pH 7.5. Then add 1.0 mL of IMCS enzyme. QS to the line with 0.2M phosphate buffer, cap and invert several times to mix well. Final enzyme concentration is 5000 U.
To a 10 mL volumetric flask add 6 mL of 50/50 ACN/MeOH. Add […] of THCA D9 100 μg/mL. Then add 1.0 mL of IMCS enzyme stock (>5000 U). QS to the line with 0.2M sodium phosphate buffer. Final enzyme concentration is 5000 U.
In a 10 mL volumetric flask add 6 mL of 50/50 ACN/MeOH. Add 25 μL of THCA D9 (100 μg/mL). QS to the line with DI water, cap and invert several times to mix well. Concentration of IS will be 250 ng/mL.
(§1) To a 10 mL volumetric flask add 1 mL ACN. Add 18.5 μL of 10 μg/mL THCA Glucuronide working solution adjusted to allow quantitation of THCA at 18.5 ng/mL post hydrolysis. QS to line with NHU.
Pipet 50 μL sample into a 750 μL autosampler vial. Pipet 50 μL of prepared enzyme into vial (this will yield 500 U in final 500 μL volume) and wait 5, 10, 15, and 20 minutes. Then pipet 400 μL of THCA D9 IS into the vial. Vortex and move to instrument.
Pipet 50 μL sample into a 750 μL, autosampler vial. Then pipet 450 μL, of Enzyme Stock Solution With Organic (see above) into vial. Wait 5, 10, 15, and 20 minutes. Vortex and move to instrument.

[4] = Hydrolysis of THCA glucuronide at 65° C. with no enzyme; format: physicochemical; details: for No Enzyme (% Hydrolysis): 65° C.
Description: as §1
(§2) Pipet 50 μL sample into a 750 μL autosampler vial. Pipet 50 μL of prepared enzyme into vial (this will yield 500 U in final 500 μL volume). Vortex and heat 15, 30, 45, and 60 minutes. Then pipet 400 μL of THCA D9 IS into vial. Vortex and move to instrument.
In the presence of enzyme, the THCA glucuronide is hydrolyzed completely by 15 min.

[5] = system: Red Abalone beta-glucuronidase (Kura Biotec); assay: Red Abalone beta-glucuronidase hydrolysis of THCA glucuronide; format: biochemical; details: for Enzyme + Organic Solvent(s) (% Hydrolysis) / Enzyme (% Hydrolysis): 65° C.; for Enzyme + Organic Solvent(s) (% Hydrolysis): ACN/MeOH; for Enzyme (% Hydrolysis): without organic
Description: To a 10 mL volumetric flask add 5 mL of DI water. Then add 1.0 mL of Kura Biotec enzyme. QS to the line with DI water, cap and invert several times to mix well. Final enzyme concentration is 5000 U.
In a 10 mL volumetric flask add 6 mL of 50/50 ACN/MeOH. Add 25 μL of THCA D9 100 μg/mL. Then add 1.0 mL of IMCS enzyme. QS to the line with DI water. Final enzyme concentration is 5000 U.
To a 10 mL volumetric flask add 6 mL of 50/50 ACN/MeOH. Add 25 μL of THCA D9 (100 μg/mL). QS to the line with DI water, cap and invert several times to mix well. Concentration of IS will be 250 ng/mL.
as §1, §2
Pipet 50 μL sample into a 750 μL autosampler vial. Then pipet 450 μL of Enzyme Stock Solution With Organic (see above) into vial. Vortex and heat 15, 30, 45, and 60 minutes. Vortex and move to instrument.

Question: With CO[C@]12CC[C@@]3(C[C@@H]1[C@](C)(O)C(C)(C)C)[C@H]1Cc4ccc(O[C@@H]5O[C@H](C(=O)O)[C@@H](O)[C@H](O)[C@H]5O)c5c4[C@@]3(CCN1CC1CC1)[C@H]2O5 [Buprenorphine Glucuronide] as the compound, how does the “Cleavage by the recombinant enzyme (in words)” value [1] read?
Answer: rapidly cleaves

Question: What does the source list for COc1ccc2c3c1O[C@H]1[C@@H](O[C@@H]4O[C@H](C(=O)O)[C@@H](O)[C@H](O)[C@H]4O)C=C[C@H]4[C@@H](C2)N(C)CC[C@@]341 [Codeine Glucuronide]?
Answer: Mean % Hydrolysis ([2]; 55° C., 0 min): 15.7%; Mean % Hydrolysis ([2]; 55° C., 15 min): 40.2%; Mean % Hydrolysis ([2]; 55° C., 30 min): 65.6%; Mean % Hydrolysis ([2]; 55° C., 45 min): 76.6%; Mean % Hydrolysis ([2]; 55° C., 60 min): 81.8%; Mean % Hydrolysis ([2]; 65° C., 0 min): 15.7%; Mean % Hydrolysis ([2]; 65° C., 15 min): 42.7%; Mean % Hydrolysis ([2]; 65° C., 30 min): 64.1%; Mean % Hydrolysis ([2]; 65° C., 45 min): 75.5%; Mean % Hydrolysis ([2]; 65° C., 60 min): 79.8%; Cleavage in the presence of the IMCSzyme (in words) [2]: take more time and heat to cleave

Question: For CN1CC[C@]23c4c5ccc(O[C@@H]6O[C@H](C(=O)O)[C@@H](O)[C@H](O)[C@H]6O)c4O[C@H]2C(=O)CC[C@H]3[C@H]1C5 [Hydromorphone Glucuronide], which “Mean % Hydrolysis” value ([2]; 55° C., 0 min) is on record?
Answer: 58.5%

Question: And the “Mean % Hydrolysis” value ([2]; 55° C., 15 min)?
Answer: 80.5%

Question: And the “Mean % Hydrolysis” value ([2]; 55° C., 30 min)?
Answer: 91.1%

Question: And the “Mean % Hydrolysis” value ([2]; 55° C., 45 min)?
Answer: 93.3%

Question: And the “Mean % Hydrolysis” value ([2]; 55° C., 60 min)?
Answer: 93.8%

Question: What about the “Mean % Hydrolysis” value ([2]; 65° C., 0 min) of the same compound?
Answer: 58.5%

Question: What about the “Mean % Hydrolysis” value ([2]; 65° C., 15 min) of the same compound?
Answer: 77.1%

Question: And the “Mean % Hydrolysis” value ([2]; 65° C., 30 min)?
Answer: 89.4%

Question: And the “Mean % Hydrolysis” value ([2]; 65° C., 45 min)?
Answer: 91.0%

Question: What about the “Mean % Hydrolysis” value ([2]; 65° C., 60 min) of the same compound?
Answer: 91.5%

Question: For CN1CC[C@]23c4c5ccc(O[C@@H]6O[C@H](C(=O)O)[C@@H](O)[C@H](O)[C@H]6O)c4O[C@H]2[C@@H](O)C=C[C@H]3[C@H]1C5 [Morphine-3-Glucuronide], which “Mean % Hydrolysis” value ([2]; 55° C., 0 min) is on record?
Answer: 99.5%

Question: What about the “Mean % Hydrolysis” value ([2]; 55° C., 15 min) of the same compound?
Answer: 99.1%

Question: What about the “Mean % Hydrolysis” value ([2]; 55° C., 30 min) of the same compound?
Answer: 99.1%

Question: What about the “Mean % Hydrolysis” value ([2]; 55° C., 45 min) of the same compound?
Answer: 97.4%

Question: And the “Mean % Hydrolysis” value ([2]; 55° C., 60 min)?
Answer: 99.9%

Question: What about the “Mean % Hydrolysis” value ([2]; 65° C., 0 min) of the same compound?
Answer: 99.5%

Question: And the “Mean % Hydrolysis” value ([2]; 65° C., 15 min)?
Answer: 95.9%

Question: What about the “Mean % Hydrolysis” value ([2]; 65° C., 30 min) of the same compound?
Answer: 95.8%

Question: What about the “Mean % Hydrolysis” value ([2]; 65° C., 45 min) of the same compound?
Answer: 97.9%

Question: And the “Mean % Hydrolysis” value ([2]; 65° C., 60 min)?
Answer: 97.6%

Question: What does the source list for CN1CC[C@]23c4c5ccc(O)c4O[C@H]2[C@@H](O[C@@H]2O[C@H](C(=O)O)[C@@H](O)[C@H](O)[C@H]2O)C=C[C@H]3[C@H]1C5 [Morphine-6-Glucuronide]?
Answer: Mean % Hydrolysis ([2]; 55° C., 0 min): 40.4%; Mean % Hydrolysis ([2]; 55° C., 15 min): 67.9%; Mean % Hydrolysis ([2]; 55° C., 30 min): 83.6%; Mean % Hydrolysis ([2]; 55° C., 45 min): 95.9%; Mean % Hydrolysis ([2]; 55° C., 60 min): 91.7%; Mean % Hydrolysis ([2]; 65° C., 0 min): 40.4%; Mean % Hydrolysis ([2]; 65° C., 15 min): 71.2%; Mean % Hydrolysis ([2]; 65° C., 30 min): 88.3%; Mean % Hydrolysis ([2]; 65° C., 45 min): 98.5%; Mean % Hydrolysis ([2]; 65° C., 60 min): 97.9%; Cleavage in the presence of the IMCSzyme (in words) [2]: take more time and heat to cleave

Question: What does the source list for CN1CC[C@]23c4c5ccc(O[C@@H]6O[C@H](C(=O)O)[C@@H](O)[C@H](O)[C@H]6O)c4O[C@H]2C(=O)CC[C@@]3(O)[C@H]1C5 [Oxymorphone Glucuronide]?
Answer: Mean % Hydrolysis ([2]; 55° C., 0 min): 43.6%; Mean % Hydrolysis ([2]; 55° C., 15 min): 71.7%; Mean % Hydrolysis ([2]; 55° C., 30 min): 90.5%; Mean % Hydrolysis ([2]; 55° C., 45 min): 97.0%; Mean % Hydrolysis ([2]; 55° C., 60 min): 101.2%; Mean % Hydrolysis ([2]; 65° C., 0 min): 43.6%; Mean % Hydrolysis ([2]; 65° C., 15 min): 76.2%; Mean % Hydrolysis ([2]; 65° C., 30 min): 89.7%; Mean % Hydrolysis ([2]; 65° C., 45 min): 95.6%; Mean % Hydrolysis ([2]; 65° C., 60 min): 100.0%

Question: Which “Mean % Hydrolysis” value ([3]; Enzyme added and incubated, then organic media added, 5 min at 55° C.) does the source give for CCCCCc1cc(O)c2c(c1)OC(C)(C)C1CCC(C(=O)OC3OC(C(=O)O)C(O)C(O)C3O)=CC21 (centres unmarked) [THCA Glucuronide] here?
Answer: 89.2%

Question: What about the “Mean % Hydrolysis” value ([3]; Enzyme added and incubated, then organic media added, 5 min at 65° C.) of the same compound?
Answer: 90.1%

Question: And the “Mean % Hydrolysis” value ([3]; Enzyme and organic media added at same time, 5 min at Room Temp)?
Answer: 110.2%

Question: And the “Mean % Hydrolysis” value ([3]; Enzyme and organic media added at same time, 10 min at Room Temp)?
Answer: 101.7%

Question: And the “Mean % Hydrolysis” value ([3]; Enzyme and organic media added at same time, 15 min at Room Temp)?
Answer: 104.9%

Question: And the “Recombinant enzyme hydrolysis (in words)” value ([3]; room temperature, time to fill the 96-well plate (~15 min using robotics))?
Answer: complete

Question: What about the “No Enzyme (% Hydrolysis)” value ([4]; 15 min) of the same compound?
Answer: 0.03%

Question: And the “No Enzyme (% Hydrolysis)” value ([4]; 30 min)?
Answer: 0.03%

Question: What about the “No Enzyme (% Hydrolysis)” value ([4]; 45 min) of the same compound?
Answer: 0.03%

Question: And the “No Enzyme (% Hydrolysis)” value ([4]; 60 min)?
Answer: 0.03%

Question: And the “Hydrolysis in the absence of enzyme (in words)” value ([4]; elevated temperature)?
Answer: no hydrolysis

Question: What about the “Enzyme + Organic Solvent(s) (% Hydrolysis)” value ([5]; 15 min) of the same compound?
Answer: 121%

Question: And the “Enzyme (% Hydrolysis)” value ([5]; 15 min)?
Answer: 104%

Question: And the “Enzyme + Organic Solvent(s) (% Hydrolysis)” value ([5]; 30 min)?
Answer: 130%

Question: What about the “Enzyme (% Hydrolysis)” value ([5]; 30 min) of the same compound?
Answer: 97%

Question: And the “Enzyme + Organic Solvent(s) (% Hydrolysis)” value ([5]; 45 min)?
Answer: 134%

Question: What about the “Enzyme (% Hydrolysis)” value ([5]; 45 min) of the same compound?
Answer: 102%

Question: And the “Enzyme + Organic Solvent(s) (% Hydrolysis)” value ([5]; 60 min)?
Answer: 136%

Question: And the “Enzyme (% Hydrolysis)” value ([5]; 60 min)?
Answer: 101%

Question: And the Hydrolysis ([5]; enzyme and 60% water miscible solvent, as early as 15 min)?
Answer: 100%

Question: And the “Time by which hydrolyzed completely” value ([5]; in the presence of enzyme)?
Answer: ≤ 15 min
